Experimental data reported in patent publication US6372777B1, “Cyclic AMP-specific phosphodiesterase inhibitors” (ICOS Corporation, priority 1999, dated 2002).

Experiments:
serum TNFα = experiment: Combined mouse endotoxin-stimulated TNFα release assay (serum TNFα); assay type: in vivo, female Balb/c mice; details: LPS mouse model
Experimental: The purpose of this study was to determine the efficacy of PDE4 inhibitors in vivo in an LPS mouse model together with a determination with respect to central nervous system (CNS) side-effects manifested by a decrease in spontaneous mobility. The test animals were female Balb/c mice, having an average weight of about 20 g. The PDE4 inhibitors, formulated in 30% Cremophor® EL, were administered via intraperitoneal (i.p.) injections at doses of 0.1, 1.0, 10.0, and 100 mg/kg. Individual dose volumes (about […]) were adjusted based on the body weights measured. One hour later, 5 mg/kg LPS in a final volume of 200 μL was injected via the tail vein to each animal. Ninety minutes following the LPS treatment, the animals were bled and serum samples were collected before being stored at −70° C. until assayed. For efficacy determination, the serum samples were diluted two-fold and TNFα levels were determined using the CYTOSCREEN® Immunoassay Kit (Biosource International) The data were averaged between triplicate sample subjects for each of the tested compounds.

spontaneous mobility = experiment: Locomotor activity / sedative side-effect visual scoring; assay type: in vivo, female Balb/c mice; set-up: key: Vehicle control animals were rated a single “+”; animals that were effectively immobilized and stretched out on the bottom of the cage with little detectable movement were rated as “++++.”; details: 10 mg/kg i.p., mice
Experimental: The purpose of this study was to determine the efficacy of PDE4 inhibitors in vivo in an LPS mouse model together with a determination with respect to central nervous system (CNS) side-effects manifested by a decrease in spontaneous mobility.
The test animals were female Balb/c mice, having an average weight of about 20 g. The PDE4 inhibitors, formulated in 30% Cremophor® EL, were administered via intraperitoneal (i.p.) injections at doses of 0.1, 1.0, 10.0, and 100 mg/kg. Individual dose volumes (about […]) were adjusted based on the body weights measured. One hour later, 5 mg/kg LPS in a final volume of 200 μL was injected via the tail vein to each animal. Ninety minutes following the LPS treatment, the animals were bled and serum samples were collected before being stored at −70° C. until assayed.
For side-effect profiling, a subjective visual scoring system was utilized at 5 min and 20min after administration of PDE4 inhibitors. […] In this instance, the subjects could be monitored continuously over pre-set intervals.
Movement of the X-Y plane, or rearing up on the hind legs, was quantified by counting the number of “light-beam” crosses per unit of time. […] The quantitative scoring correlated well with the subjective measurements described above.

[1] = system: human peripheral blood lymphocytes; experiment: Lipopolysaccharide-stimulated TNFα release from human peripheral blood lymphocytes; assay type: cell-based; details: for EC50: Homo sapiens, Lymphocyte, LPS-stimulated TNFα release, read-out: PBL/TNFα EC50
Experimental: The compounds of structural formulae (I) and (II) also were tested for an ability to reduce TNFα secretion in human peripheral blood lymphocytes. The ability to reduce TNFα secretion is related to the EC50 values (i.e., the effective concentration of the compound capable of inhibiting 50% of the total TNFα). To assess the ability of a compound to reduce TNFα secretion in human peripheral blood lymphocytes (PBL), the following tests were performed. […] Heparinized blood (approximately 30 mL) drawn from human volunteers was mixed 1:1 with Dulbecco's modified phosphate-buffered saline. This mixture was mixed 1:1 with HISTOPAQUE and centrifuged at 1,500 rpm at room temperature without braking in the swinging bucket of a Beckman model TJ6 centrifuge. Erythrocytes were centrifuged to the bottom of the tubes, and serum remained at the surface of the tubes. A layer containing lymphocytes sedimented between the serum and HISTOPAQUE® layers, and was removed by aspiration to a fresh tube. The cells were quantified and adjusted to 3×10^6 cells/mL and a 100 μL aliquot is placed into the wells of a 96 well plate. Test compounds and RPMI media (Gibco/BRL Life Sciences) are added to each of the wells 15 minutes prior to addition of bacterial LPS ([…]). The mixture was allowed to incubate for 20 hours at 37° C. in a humidified chamber. The cells then were separated by centrifuging at 800 rpm for 5 minutes at room temperature. An aliquot of 80 µL of supernatant was transferred to a new plate or determination of TNFα concentration. TNFα protein in the cell supernatant fluids was measured using a commercially available enzyme-linked immunosorbent assay (ELISA) (CYTOSCREEN® Immunoassay Kit from Biosource International). The cell-based assay provided the following results for various compounds of the present invention. The EC50 values (i.e., effective concentration of the compound capable of inhibiting 50% of the total TNFα ) illustrate the ability of the present compounds to inhibit LPS-stimulated TNFα release from human PBL.

recombinant human PDE4 = details: reported value; read-out: IC50 with respect to recombinant human PDE4; cited from earlier work
human recombinant PDE4 = molecular target: T1, human recombinant PDE4 (Homo sapiens, UniProt Q07343); experiment: Inhibition of human recombinant PDE4 (IC50); assay type: biochemical
T1 construct: made in house; host or cells: Saccharomyces cerevisiae BJ2-54 (strain YI23 harboring HDUN2.32, if PDE4B)

human recombinant PDE4B = molecular target: T2, human recombinant PDE4B (Homo sapiens, UniProt Q07343); experiment: PDE inhibition, PDE4B; assay type: biochemical
T2 construct: made in house; host or cells: Saccharomyces cerevisiae, strain YI23 harboring HDUN2.32

PDE1A = molecular target: T3, PDE1A (Homo sapiens, UniProt P54750); experiment: PDE inhibition, PDE1A; assay type: biochemical
T3 construct: contained the complete open reading frame of PDE1A3; made in house; host or cells: baculovirus-infected Sf9 cells

PDE1B = molecular target: T4, PDE1B (Homo sapiens, UniProt Q01064); experiment: PDE inhibition, PDE1B; assay type: biochemical
T4 construct: made in house; host or cells: Saccharomyces cerevisiae BJ2-54

PDE1C = molecular target: T5, PDE1C (Homo sapiens, UniProt Q14123); experiment: PDE inhibition, PDE1C; assay type: biochemical
T5 construct: Plasmid Hcam3aBB contained the complete open reading frame of PDE1C3; made in house; host or cells: baculovirus-infected Sf9 cells

PDE2 = molecular target: T6, PDE2 (Homo sapiens, UniProt O00408); experiment: PDE inhibition, PDE2; assay type: biochemical
T6 construct: made in house; host or cells: Saccharomyces cerevisiae, strain YI34

PDE3A = molecular target: T7, PDE3A (Homo sapiens, UniProt Q14432); experiment: PDE inhibition, PDE3A; assay type: biochemical
T7 construct: Plasmid pBB-PDE3A contained the complete open reading frame of PDE3A; made in house; host or cells: baculovirus-infected Sf9 cells (washed 100,000 x g pellet, not purified)

PDE5 = molecular target: T8, PDE5 (Homo sapiens, UniProt O76074); experiment: PDE inhibition, PDE5; assay type: biochemical
T8 construct: made in house; host or cells: Saccharomyces cerevisiae BJ2-54

PDE7 = molecular target: T9, PDE7 (Homo sapiens, UniProt Q13946); experiment: PDE inhibition, PDE7; assay type: biochemical
T9 construct: made in house; host or cells: Saccharomyces cerevisiae BJ2-54
T9 sequence (Q13946 whole entry): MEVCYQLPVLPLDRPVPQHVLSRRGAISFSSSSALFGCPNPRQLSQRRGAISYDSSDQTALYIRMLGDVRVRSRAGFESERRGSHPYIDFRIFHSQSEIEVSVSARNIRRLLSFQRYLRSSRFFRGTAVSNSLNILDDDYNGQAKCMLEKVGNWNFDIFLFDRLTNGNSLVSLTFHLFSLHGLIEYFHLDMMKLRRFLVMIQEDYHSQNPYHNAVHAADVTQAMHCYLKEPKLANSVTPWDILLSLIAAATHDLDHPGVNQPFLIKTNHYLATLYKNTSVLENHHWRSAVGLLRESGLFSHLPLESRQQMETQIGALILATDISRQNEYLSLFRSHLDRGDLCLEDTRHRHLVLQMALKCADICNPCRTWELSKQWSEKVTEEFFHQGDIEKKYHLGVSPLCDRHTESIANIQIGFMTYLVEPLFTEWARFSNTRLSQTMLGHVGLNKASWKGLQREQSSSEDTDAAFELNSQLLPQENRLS

T1 sequence (Q07343 1-564 isoform Q07343-2): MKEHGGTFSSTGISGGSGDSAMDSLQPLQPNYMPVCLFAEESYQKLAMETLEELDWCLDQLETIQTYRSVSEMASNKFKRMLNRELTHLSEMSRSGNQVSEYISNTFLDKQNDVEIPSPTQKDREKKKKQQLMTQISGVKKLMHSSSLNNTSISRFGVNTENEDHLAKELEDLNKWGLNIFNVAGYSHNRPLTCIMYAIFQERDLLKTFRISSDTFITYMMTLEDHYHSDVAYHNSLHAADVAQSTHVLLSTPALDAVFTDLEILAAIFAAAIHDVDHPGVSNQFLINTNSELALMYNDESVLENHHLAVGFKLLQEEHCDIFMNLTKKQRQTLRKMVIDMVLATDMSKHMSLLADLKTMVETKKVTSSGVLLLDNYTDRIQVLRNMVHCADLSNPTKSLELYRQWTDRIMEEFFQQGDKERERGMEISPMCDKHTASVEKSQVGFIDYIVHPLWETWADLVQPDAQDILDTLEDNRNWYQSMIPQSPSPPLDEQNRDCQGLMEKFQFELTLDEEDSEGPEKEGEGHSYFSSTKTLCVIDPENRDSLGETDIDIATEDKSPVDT
T7 sequence (Q14432 whole entry): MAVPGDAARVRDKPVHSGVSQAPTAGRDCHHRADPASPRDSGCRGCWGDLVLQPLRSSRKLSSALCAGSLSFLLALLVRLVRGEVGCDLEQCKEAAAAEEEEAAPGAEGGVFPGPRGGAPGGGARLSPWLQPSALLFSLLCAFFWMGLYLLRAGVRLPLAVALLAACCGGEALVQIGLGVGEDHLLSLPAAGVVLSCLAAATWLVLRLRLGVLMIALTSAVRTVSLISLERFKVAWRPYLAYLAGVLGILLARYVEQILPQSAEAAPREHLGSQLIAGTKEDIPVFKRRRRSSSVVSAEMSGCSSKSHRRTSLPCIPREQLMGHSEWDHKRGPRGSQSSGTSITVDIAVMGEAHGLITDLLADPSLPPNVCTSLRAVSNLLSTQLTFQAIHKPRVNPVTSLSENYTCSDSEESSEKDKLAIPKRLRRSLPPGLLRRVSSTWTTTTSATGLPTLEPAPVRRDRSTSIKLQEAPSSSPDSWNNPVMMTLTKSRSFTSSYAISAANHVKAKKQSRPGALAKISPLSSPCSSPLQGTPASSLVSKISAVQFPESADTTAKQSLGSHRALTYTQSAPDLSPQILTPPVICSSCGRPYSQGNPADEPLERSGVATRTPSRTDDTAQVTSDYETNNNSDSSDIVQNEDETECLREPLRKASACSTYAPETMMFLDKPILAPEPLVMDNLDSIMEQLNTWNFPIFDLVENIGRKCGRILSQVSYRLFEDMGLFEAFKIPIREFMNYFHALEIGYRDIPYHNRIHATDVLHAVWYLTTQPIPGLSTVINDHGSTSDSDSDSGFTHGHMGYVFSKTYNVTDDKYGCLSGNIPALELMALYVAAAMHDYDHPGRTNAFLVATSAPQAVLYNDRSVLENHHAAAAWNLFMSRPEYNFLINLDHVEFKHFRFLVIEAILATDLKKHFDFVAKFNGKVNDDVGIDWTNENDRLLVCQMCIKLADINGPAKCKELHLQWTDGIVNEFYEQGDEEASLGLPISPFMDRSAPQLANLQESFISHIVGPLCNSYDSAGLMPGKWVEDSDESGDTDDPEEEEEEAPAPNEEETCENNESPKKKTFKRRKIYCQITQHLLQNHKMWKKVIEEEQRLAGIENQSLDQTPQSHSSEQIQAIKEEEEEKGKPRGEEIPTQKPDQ
T2 sequence (Q07343 whole entry): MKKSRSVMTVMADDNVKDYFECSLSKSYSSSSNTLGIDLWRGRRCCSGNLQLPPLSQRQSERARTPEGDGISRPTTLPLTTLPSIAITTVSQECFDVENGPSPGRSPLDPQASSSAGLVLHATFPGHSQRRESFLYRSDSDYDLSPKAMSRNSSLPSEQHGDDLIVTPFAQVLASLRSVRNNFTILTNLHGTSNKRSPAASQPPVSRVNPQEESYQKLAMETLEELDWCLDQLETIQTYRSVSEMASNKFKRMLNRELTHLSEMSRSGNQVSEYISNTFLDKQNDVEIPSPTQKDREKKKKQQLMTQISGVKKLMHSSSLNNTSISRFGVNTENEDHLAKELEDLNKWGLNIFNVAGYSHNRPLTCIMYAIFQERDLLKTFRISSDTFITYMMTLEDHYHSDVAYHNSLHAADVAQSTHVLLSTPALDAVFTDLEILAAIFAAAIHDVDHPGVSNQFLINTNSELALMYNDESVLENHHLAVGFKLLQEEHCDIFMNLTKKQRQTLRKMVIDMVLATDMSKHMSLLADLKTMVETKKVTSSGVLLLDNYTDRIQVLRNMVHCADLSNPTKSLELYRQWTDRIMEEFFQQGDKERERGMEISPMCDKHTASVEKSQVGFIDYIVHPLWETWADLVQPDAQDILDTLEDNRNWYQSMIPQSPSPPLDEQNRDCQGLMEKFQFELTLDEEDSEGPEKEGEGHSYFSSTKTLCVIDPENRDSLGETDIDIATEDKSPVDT
T6 sequence (O00408 whole entry): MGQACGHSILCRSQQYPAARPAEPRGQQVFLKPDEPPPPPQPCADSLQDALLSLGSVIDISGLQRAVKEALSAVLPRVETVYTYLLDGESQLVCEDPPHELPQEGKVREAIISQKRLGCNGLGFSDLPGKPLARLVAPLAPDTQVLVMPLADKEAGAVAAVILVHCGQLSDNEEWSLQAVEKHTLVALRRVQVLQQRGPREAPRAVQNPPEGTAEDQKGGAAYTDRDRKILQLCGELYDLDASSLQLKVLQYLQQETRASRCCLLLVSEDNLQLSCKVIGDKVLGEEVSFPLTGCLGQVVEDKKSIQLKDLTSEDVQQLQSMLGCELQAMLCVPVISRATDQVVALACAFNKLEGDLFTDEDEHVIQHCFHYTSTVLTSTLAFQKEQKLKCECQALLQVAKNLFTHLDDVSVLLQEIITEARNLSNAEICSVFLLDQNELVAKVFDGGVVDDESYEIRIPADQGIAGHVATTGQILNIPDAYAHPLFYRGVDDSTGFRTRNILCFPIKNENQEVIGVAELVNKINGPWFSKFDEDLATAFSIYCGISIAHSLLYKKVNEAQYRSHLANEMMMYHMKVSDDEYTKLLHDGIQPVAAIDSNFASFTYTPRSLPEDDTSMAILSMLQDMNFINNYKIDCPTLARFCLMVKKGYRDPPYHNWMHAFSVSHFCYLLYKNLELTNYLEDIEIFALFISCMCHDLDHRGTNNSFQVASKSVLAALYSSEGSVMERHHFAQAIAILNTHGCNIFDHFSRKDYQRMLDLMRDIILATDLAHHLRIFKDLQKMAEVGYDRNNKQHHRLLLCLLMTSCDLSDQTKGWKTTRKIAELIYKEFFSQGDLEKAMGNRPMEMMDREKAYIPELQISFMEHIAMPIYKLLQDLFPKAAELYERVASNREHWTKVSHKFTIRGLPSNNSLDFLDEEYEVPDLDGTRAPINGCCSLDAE

Row | IC50 (human recombinant PDE4) | EC50 [1] | Compound | % TNFα Inhibition (serum TNFα; 1 mg/kg i.p.) | % TNFα Inhibition (serum TNFα; 10 mg/kg i.p.) | % TNFα Inhibition (serum TNFα; 100 mg/kg i.p.) | IC50 (recombinant human PDE4) | also measured
1 |  |  | COC(=O)N1C[C@@H](c2ccc(OC)c(OC3CCCC3)c2)[C@](C)(C(C)=O)C1 (relative stereo) [Comparative Example, trans-3-(3-cyclopentoxy-4-methoxyphenyl)-1-methoxycarbonyl-4-methyl-4-(methylcarbonyl)pyrrolidine, reference compound] | 43% | 100% | 100% |  | Sedative Effect (spontaneous mobility): +
2 |  |  | COc1ccc(C2CNC(=O)C2)cc1OC1CCCC1 (stereo not drawn) [Rolipram, reference compound] |  |  |  | ~200 nM | LPS-induced TNFα secretion from human lymphocytes ([1]; preliminary experiments): inhibit LPS-induced TNFα secretion from human lymphocytes in a dose-dependent fashion
3 |  |  | COC(=O)N1CC(c2ccc(OC)c(OC3CCCC3)c2)C(C)(C(C)=O)C1 (stereo not drawn) |  |  |  | ~2 nM | 
4 | 150 nM | 870 nM | CCOC(=O)c1cc(-c2ccccc2)n(-c2cccc([N+](=O)[O-])c2)c1C [Example 22, 2-Methyl-1-(3-nitrophenyl)-5-phenyl-1H-pyrrole-3-carboxylic acid ethyl ester] | 13% | 84% | 100% |  | IC50 (human recombinant PDE4B): 150 nM; IC50 (PDE1A): 35500 nM; IC50 (PDE1B): 21000 nM; IC50 (PDE1C): 21800 nM; IC50 (PDE2): 4500 nM; IC50 (PDE3A): 89000 nM; IC50 (PDE5): 12500 nM; IC50 (PDE7): 10600 nM
5 | 200 nM | 1500 nM | CCOC(=O)c1cc(-c2ccccc2)n(-c2cccc(Cl)c2)c1C [Example 3, 1-(3-Chlorophenyl)-2-methyl-5-phenyl-1H-pyrrole-3-carboxylic acid ethyl ester] |  |  |  |  | 
6 | 1490 nM | 100000 nM | CCOC(=O)c1cc(C)n(-c2cccc(Cl)c2Cl)c1-c1ccccc1 [Example 42, 1-(2,3-Dichlorophenyl)-5-methyl-2-phenyl-1H-pyrrole-3-carboxylic acid ethyl ester] |  |  |  |  | 
